Literature values in US20110262540A1, “Solid Pharmaceutical Composition Comprising Exemestane” (ARROW INTERNATIONAL LIMITED, priority 2008, published 2011).

Solubility in water: practically insoluble in water
Compound: C=C1C[C@@H]2[C@H](CC[C@]3(C)C(=O)CC[C@@H]23)[C@@]2(C)C=CC(=O)C=C12 [Exemestane, 6-methylenandrosta-1,4-diene-3,17-dione]
